Assay results published in US5023263A, “42-oxorapamycin” (American Home Products Corporation, priority 1990, dated 1991).
Values after ≈ are worked out from the molar mass of the structure shown.

Experiments:
[1] = system: Candida albicans ATCC 38248; experiment: antifungal plate assay (MIC); assay type: cell-based; settings: ATCC38248, plate disk assay
Method: (§1) The following represents the typical assay procedure used. Compound to be tested was placed on sterile dried 1/4" plate disks, and allowed to dry. Agar plates were seeded with fungi and allowed to solidify. The impregnated disks were placed on the seeded Agar surface and incubated for the time required for the particular culture. Results are expressed in MIC (μg/ml) to inhibit growth.

[2] = system: Candida albicans ATCC 38246; experiment: antifungal plate assay (MIC); assay type: cell-based; settings: ATCC38246, plate disk assay
Method: as §1

[3] = system: Candida albicans ATCC 38247; experiment: antifungal plate assay (MIC); assay type: cell-based; settings: ATCC38247, plate disk assay
Method: as §1

[4] = system: Candida albicans ATCC 10231; experiment: antifungal plate assay (MIC); assay type: cell-based; settings: ATCC10231, plate disk assay
Method: as §1

Candida albicans 3669 = experiment: antifungal plate assay (MIC); assay type: cell-based; settings: strain 3669, plate disk assay
Method: as §1

[5] = system: mixed lymphocyte reaction (popliteal lymph node); experiment: in vivo popliteal lymph node (PLN) test procedure (mixed lymphocyte reaction); design: species or system mice (irradiated BALB/c spleen cells into C3H recipients); settings: for PLN (ratio): Table 1, daily p.o. Day 0 to Day 4
Method: (§2) Immunosuppressive activity was evaluated in an in vitro standard pharmacological test procedure to measure lymphocyte proliferation (LAF) and in two in vivo standard pharmacological test procedures. The first in vivo procedure was a popliteal lymph node (PLN) test procedure which measured the effect of compounds of this invention on a mixed lymphocyte reaction and the second in vivo procedure evaluated the survival time of a pinch skin graft.
A mixed lymphocyte reaction (MLR) occurs when lymphoid cells from genetically distinct animals are combined in tissue culture. Each stimulates the other to undergo blast transformation which results in increased DNA synthesis that can be quantified by the incorporation of tritiated thymidine. Since stimulating a MLR is a function of disparity at Major Histocompatibility antigens, an in vivo popliteal lymph node (PLN) test procedure closely correlates to host vs. graft disease. Briefly, irradiated spleen cells from BALB/c donors are injected into the right hind foot pad of recipient C3H mice. The drug is given daily, p.o. from Day 0 to Day 4. On Day 3 and Day 4, tritiated thymidine is given i.p., b.i.d. On Day 5, the hind popliteal lymph nodes are removed and dissolved, and radioactivity counted. The corresponding left PLN serves as the control for the PLN from the injected hind foot. Percent suppression is calculated using the non-drug treated animals as allogenic control. […] Results are expressed by the following ratio: [formula]

pinch skin graft = experiment: survival time of pinch skin graft; assay type: in vivo, mice (male DBA/2 donors, male BALB/c recipients)
Method: as §2
The second in vivo test procedure is designed to determine the survival time of pinch skin graft from male DBA/2 donors transplanted to male BALB/c recipients. The method is adapted from Billingham R. E. and Medawar P. B., J. Exp. Biol. 28:385-402, (1951). Briefly, a pinch skin graft from the donor is grafted on the dorsum of the recipient as a homograft, and an autograft is used as control in the same region. […] Untreated recipients serve as rejection control. The graft is monitored daily and observations are recorded until the graft becomes dry and forms a blackened scab. This is considered as the rejection day. The mean graft survival time (number of days ±S.D.) of the drug treatment group is compared with the control group.

[6] = system: experimental allergic encephalomyelitis; settings: model for multiple sclerosis; cited from earlier work
transplant rejection = settings: cited from earlier work
adjuvant arthritis = settings: model for rheumatoid arthritis; cited from earlier work
IgE-like antibodies = settings: in vivo; cited from earlier work
Candida albicans = settings: in vitro and in vivo; cited from earlier work

SMILES | MIC [1] | MIC [2] | MIC [3] | MIC [4] | MIC (Candida albicans 3669) | PLN test result in words ([5]; interpretation of negative PLN ratio) | PLN (ratio) [5] | Skin Graft survival time (days + SD) (pinch skin graft; mean ± S.D., intraperitoneally) | survival time of the skin graft, in words (pinch skin graft; vs rejection within 6-7 days without immunosuppressive agent) | effect in experimental allergic encephalomyelitis model [6] | inhibition of transplant rejection (transplant rejection) | effect in adjuvant arthritis model (adjuvant arthritis) | inhibition of formation of IgE-like antibodies (IgE-like antibodies) | antifungal activity (Candida albicans) | Percent suppression (PLN) ([5]; 6 mg/kg, p.o., vs non-drug treated allogenic control)
CO[C@H]1C[C@@H]2CC[C@@H](C)[C@@](O)(O2)C(=O)C(=O)N2CCCC[C@H]2C(=O)O[C@H]([C@H](C)C[C@@H]2CCC(=O)[C@H](OC)C2)CC(=O)[C@H](C)/C=C(\C)[C@@H](O)[C@@H](OC)C(=O)[C@H](C)C[C@H](C)/C=C/C=C/C=C/1C [42-oxorapamycin] | 0.025 µg/mL (≈ 0.0274 µM) | 0.05 µg/mL (≈ 0.0548 µM) | 0.125 µg/mL (≈ 0.137 µM) | 0.006 µg/mL (≈ 0.00658 µM) | 0.05 µg/mL (≈ 0.0548 µM) | may cause T cell proliferation | -0.93 | 10.17 ± 0.41 days | increased survival time |  |  |  |  |  | 
CO[C@H]1C[C@@H]2CC[C@@H](C)[C@@](O)(O2)C(=O)C(=O)N2CCCC[C@H]2C(=O)O[C@H]([C@H](C)C[C@@H]2CC[C@@H](O)[C@H](OC)C2)CC(=O)[C@H](C)/C=C(\C)[C@@H](O)[C@@H](OC)C(=O)[C@H](C)C[C@H](C)/C=C/C=C/C=C/1C [Rapamycin, rapamycin] | 0.006 µg/mL (≈ 0.00656 µM) | 0.025 µg/mL (≈ 0.0273 µM) | 0.003 µg/mL (≈ 0.00328 µM) | 0.003 µg/mL (≈ 0.00328 µM) | 0.025 µg/mL (≈ 0.0273 µM) |  | 1.0 |  |  | effective | effective in inhibiting transplant rejection | effective | effectively inhibited | antifungal activity | 86%
